Laboratory results taken from patent US10294202B2, “Pyrrolidinones as herbicides” (FMC Corporation, priority 2013, dated 2019).

Experiments:
kochia = experiment: Test D pre-/postemergence herbicide test; type: in vivo, Kochia scoparia; conditions: for Plant response rating: Kochia, scale 0 to 100; for Plant response rating, Kochia: scale 0 to 100 (0 no effect, 100 complete control)
Source text: (§1) Seeds of plant species selected from bluegrass (annual bluegrass, Poa annua), blackgrass (Alopecurus myosuroides), canarygrass (littleseed canarygrass, Phalaris minor), chickweed (common chickweed, Stellaria media), galium (catchweed bedstraw, Galium aparine), bromegrass, downy (downy bromegrass, Bromus tectorum), field poppy (Papaver rhoeas), field violet (Viola arvensis), foxtail, green (green foxtail, Setaria viridis), deadnettle (henbit deadnettle, Lamium amplexicaule), ryegrass, Italian (Italian ryegrass, Lolium multiflorum), kochia (Kochia scoparia), lambsquarters (Chenopodium album), oilseed rape (Brassica napus), pigweed (Amaranthus retroflexus), chamomile (scentless chamomile, Matricaria inodora), Russian thistle (Salsola kali), speedwell (bird's-eye speedwell, Veronica persica), barley, spring (spring barley, Hordeum vulgare), wheat, spring (spring wheat, Triticum aestivum), buckwheat, wild (wild buckwheat, Polygonum convolvulus), mustard, wild (wild mustard, Sinapis arvensis), oat, wild (wild oat, Avena fatua), radish, wild (wild radish, Raphanus raphanistrum), […]), barley, winter (winter barley, Hordeum vulgare), and wheat, winter (winter wheat, Triticum aestivum) were planted into a silt loam soil and treated preemergence with test chemicals formulated in a non-phytotoxic solvent mixture which included a surfactant. At the same time, these species were planted in pots containing Redi-Earth® planting medium (Scotts Company, 14111 Scottslawn Road, Marysville, Ohio 43041) comprising spaghnum peat moss, vermiculite, wetting agent and starter nutrients and treated with postemergence applications of the test chemicals formulated in the same manner. Plants ranged in height from 2 to 18 cm (1- to 4-leaf stage). Treated plants and controls were maintained in a controlled growth environment for 7 to 21 days after which time all species were compared to controls and visually evaluated. Plant response ratings, summarized in Table D, are based on a scale of 0 to 100 where 0 is no effect and 100 is complete control. A dash (-) response means no test result.

speedwell = experiment: Test D pre-/postemergence herbicide test; type: in vivo, Veronica persica; conditions: for Plant response rating: Postemergence, Speedwell, scale 0 to 100; for Plant response rating, Speedwell: Preemergence, scale 0 to 100 (0 no effect, 100 complete control)
How it was run: (§2)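 Visual ratings from 0 (no effect) to 100 (complete control) were made against untreated controls 7 to 21 days after treatment. Application was both preemergence, on silt loam soil, and postemergence, to 1- to 4-leaf plants 2-18 cm tall; compounds were formulated in a non-phytotoxic surfactant-containing solvent.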

radish, wild = experiment: Test D pre-/postemergence herbicide test; type: in vivo, Raphanus raphanistrum; conditions: for Plant response rating: Postemergence, Radish, Wild, scale 0 to 100; for Plant response rating, Radish, Wild: Preemergence, scale 0 to 100 (0 no effect, 100 complete control)
How it was run: as §2

cocklebur = experiment: Test C pre-/postemergence herbicide test; type: in vivo, Xanthium strumarium; conditions: Postemergence
Source text: Seeds of plant species selected from blackgrass (Alopecurus myosuroides), ryegrass, Italian (Italian ryegrass, Lolium multiflorum), wheat (winter wheat, Triticum aestivum), galium (catchweed bedstraw, Galium aparine), corn (Zea mays), crabgrass, large (large crabgrass, Digitaria sanguinalis), foxtail, giant (giant foxtail, Setaria faberii), johnsongrass (Sorghum halepense), lambsquarters (Chenopodium album), morningglory (Ipomoea coccinea), nutsedge, yellow (yellow nutsedge, Cyperus esculentus), pigweed (Amaranthus retroflexus), ragweed (common ragweed, Ambrosia elatior), soybean (Glycine max), barnyardgrass (Echinochloa crus-galli), oilseed rape (Brassica napus), waterhemp (common waterhemp, Amaranthus rudis), kochia (Kochia scoparia), oat, wild (wild oat, Avena fatua), surinam grass (Brachiaria decumbens), foxtail, green (green foxtail, Setaria viridis), goosegrass (Eleusine indica), bromegrass, downy (downy bromegrass, Bromus tectorum), nightshade (eastern black nightshade, Solanum ptycanthum), cocklebur (common cocklebur, Xanthium strumarium), cupgrass, woolly (woolly cupgrass, Eriochloa villosa), bermudagrass (Cynodon dactylon), sunflower, (common oilseed sunflower, Helianthus annuus), Russian thistle (Salsola kali) and velvetleaf (Abutilon theophrasti) were planted into a blend of loam soil and sand and treated preemergence with test chemicals formulated in a non-phytotoxic solvent mixture which included a surfactant. At the same time, plants selected from these crop and weed species and also barley (winter barley, Hordeum vulgare), […]), chickweed (common chickweed, Stellaria media), deadnettle (henbit deadnettle, Lamium amplexicaule), and canarygrass (littleseed canarygrass, Phalaris minor) were planted in pots containing Redi-Earth® planting medium (Scotts Company, 14111 Scottslawn Road, Marysville, Ohio 43041) comprising spaghnum peat moss, vermiculite, wetting agent and starter nutrients and treated with postemergence applications of test chemicals formulated in the same manner. Plants ranged in height from 2 to 18 cm (1- to 4-leaf stage) for postemergence treatments. Treated plants and controls were maintained in a greenhouse for 13 to 15 days, after which time all species were compared to controls and visually evaluated. Plant response ratings, summarized in Table C, are based on a scale of 0 to 100 where 0 is no effect and 100 is complete control. A dash (-) response means no test result.

chickweed = experiment: Test D pre-/postemergence herbicide test; type: in vivo, Stellaria media; conditions: for Plant response rating: Chickweed, scale 0 to 100; for Plant response rating, Chickweed: scale 0 to 100 (0 no effect, 100 complete control)
Source text: as §1

SMILES | Plant response rating (kochia; Postemergence, 31 g ai/ha) | Plant response rating (kochia; Postemergence, 62 g ai/ha) | Plant response rating (kochia; Postemergence, 125 g ai/ha) | Plant response rating, Kochia (kochia; Preemergence, 62 g ai/ha) | Plant response rating, Kochia (kochia; Preemergence, 31 g ai/ha) | Plant response rating, Speedwell (speedwell; 62 g ai/ha) | Plant response rating, Speedwell (speedwell; 125 g ai/ha) | Plant response rating, Speedwell (speedwell; 31 g ai/ha) | Plant response rating (radish, wild; 31 g ai/ha) | Plant response rating (radish, wild; 62 g ai/ha) | Plant response rating (radish, wild; 125 g ai/ha) | Plant response rating, Radish, Wild (radish, wild; 62 g ai/ha) | Plant response rating, Chickweed (chickweed; Preemergence, 62 g ai/ha) | Plant response rating, Chickweed (chickweed; Preemergence, 31 g ai/ha) | Plant response rating (kochia; Preemergence, 250 g ai/ha) | Plant response rating, Speedwell (speedwell; 250 g ai/ha) | Plant response rating, Radish, Wild (radish, wild; 125 g ai/ha) | Plant response rating, Radish, Wild (radish, wild; 31 g ai/ha) | Plant response rating, Radish, Wild (radish, wild; 250 g ai/ha) | Plant response rating (chickweed; Preemergence, 250 g ai/ha) | further results
O=C1NCC(c2cc(F)c(F)cc2F)C1C(=O)Nc1cccc(F)c1F (stereo not shown) [Compound 50] | 15 | 15 | 0 | 10 | 10 | 0 | 0 | 0 | 0 | 0 | 0 | 0 | 0 | 0 | – | – | – | – | – | – | Plant response rating (kochia; Postemergence, 16 g ai/ha): 10; Plant response rating, Kochia (kochia; Preemergence, 16 g ai/ha): 5; Plant response rating (kochia; Preemergence, 125 g ai/ha): 0; Plant response rating (speedwell; 16 g ai/ha): 0; Plant response rating, Speedwell (speedwell; 16 g ai/ha): 0; Plant response rating (radish, wild; 16 g ai/ha): 0; Plant response rating, Radish, Wild (radish, wild; 16 g ai/ha): 0; Plant response rating, Cocklebur (cocklebur; 31 g ai/ha, scale 0 (no effect) to 100 (complete control)): 5; Plant response rating, Cocklebur (cocklebur; 62 g ai/ha, scale 0 to 100 (0 no effect, 100 complete control)): 5; Plant response rating, Cocklebur (cocklebur; 125 g ai/ha, scale 0 to 100 (0 no effect, 100 complete control)): 5; Plant response rating, Cocklebur (cocklebur; 250 g ai/ha, scale 0 to 100 (0 no effect, 100 complete control)): 5; Plant response rating (chickweed; Postemergence, 16 g ai/ha): 10; Plant response rating (chickweed; Postemergence, 31 g ai/ha): 15; Plant response rating (chickweed; Postemergence, 62 g ai/ha): 20; Plant response rating (chickweed; Postemergence, 125 g ai/ha): 15; Plant response rating, Chickweed (chickweed; Preemergence, 16 g ai/ha): 0; Plant response rating (chickweed; Preemergence, 125 g ai/ha): 0
O=C1NCC(c2ccc(C(F)(F)F)cc2)C1C(=O)Nc1cccc(F)c1F (stereo not shown) [Compound 80, N-(2,3-difluorophenyl)-2-oxo-4-[4-(trifluoromethyl)phenyl]-3-pyrrolidinecarboxamide] | 65 | 75 | 70 | 35 | 15 | 85 | 85 | 10 | 50 | 70 | 35 | 30 | 100 | 85 | 75 | 100 | 30 | 15 | 70 | 100 | Plant response rating (kochia; Postemergence, 250 g ai/ha): 75; Plant response rating (kochia; Preemergence, 125 g ai/ha): 70; Plant response rating (speedwell; 31 g ai/ha): 60; Plant response rating (speedwell; 62 g ai/ha): 70; Plant response rating (speedwell; 125 g ai/ha): 70; Plant response rating (speedwell; 250 g ai/ha): 65; Plant response rating (radish, wild; 250 g ai/ha): 60; Plant response rating (chickweed; Postemergence, 31 g ai/ha): 35; Plant response rating (chickweed; Postemergence, 62 g ai/ha): 45; Plant response rating (chickweed; Postemergence, 125 g ai/ha): 85; Plant response rating (chickweed; Postemergence, 250 g ai/ha): 85; Plant response rating (chickweed; Preemergence, 125 g ai/ha): 100
O=C1NC[C@H](c2cccc(C(F)(F)F)c2)[C@H]1C(=O)Nc1ccccc1F [Compound 204, (3R,4S)—N-(2-fluorophenyl)-2-oxo-4-[3-(trifluoromethyl)phenyl]-3-pyrrolidinecarboxamide] | – | – | – | 45 | 20 | 10 | 10 | 0 | – | – | – | 0 | 100 | 100 | 70 | 70 | 0 | 0 | 0 | 100 | Plant response rating, Kochia (kochia; Preemergence, 125 g ai/ha): 15; Plant response rating, Chickweed (chickweed; Preemergence, 125 g ai/ha): 100
O=C1NC[C@H](c2cccc(C(F)(F)F)c2)[C@H]1C(=O)Nc1cccc(F)c1F [Compound 206] | – | – | – | 60 | 45 | 25 | 65 | 0 | – | – | – | 25 | 100 | 30 | 80 | 90 | 30 | 25 | 30 | 95 | Plant response rating, Kochia (kochia; Preemergence, 125 g ai/ha): 70; Plant response rating, Chickweed (chickweed; Preemergence, 125 g ai/ha): 70
O=C1NCC(c2ccc(C(F)(F)F)cc2)C1C(=O)Nc1ccccc1F (stereo not shown) [Compound 231] | 55 | 60 | 60 | 20 | 0 | 80 | 100 | 75 | 30 | 70 | 75 | 0 | 85 | 75 | 85 | 100 | 0 | 0 | 0 | 90 | Plant response rating (kochia; Postemergence, 250 g ai/ha): 65; Plant response rating, Kochia (kochia; Preemergence, 125 g ai/ha): 80; Plant response rating (speedwell; 31 g ai/ha): 60; Plant response rating (speedwell; 62 g ai/ha): 70; Plant response rating (speedwell; 125 g ai/ha): 75; Plant response rating (speedwell; 250 g ai/ha): 75; Plant response rating (radish, wild; 250 g ai/ha): 70; Plant response rating (chickweed; Postemergence, 31 g ai/ha): 25; Plant response rating (chickweed; Postemergence, 62 g ai/ha): 80; Plant response rating (chickweed; Postemergence, 125 g ai/ha): 80; Plant response rating (chickweed; Postemergence, 250 g ai/ha): 80; Plant response rating, Chickweed (chickweed; Preemergence, 125 g ai/ha): 95
